Measured values reported in patent US20190223483A1, “SENSORY MODIFIER COMPOUNDS” (CARGILL, INCORPORATED, priority 2017, published 2019).

Assay: Overall sweetness quality preference
Assay type: in vivo
Parameters: key: ! = preferred; !! = very preferred; !!! = most preferred
Procedure: A series of assays were carried out to determine overall sweetness quality preference for steviol glycoside with sensory modifier compound. Solutions of steviol glycosides and sensory modifier compound were prepared at varying concentrations of steviol glycoside and sensory modifier compound. The steviol glycoside was RebM and the sensory modifier compound was monocaffeoylquinic and dicaffeoylquinic acids prepared from yerba mate. The concentration of steviol glycosides was between 0 ppm and 1600 ppm. The concentration of sensory modifier compound was between 0 ppm and 1600 ppm. The solutions were tested for overall sweetness quality preference (!=preferred, !!=very preferred, and !!!=most preferred).

C=C1C[C@@]23CC[C@H]4[C@@](C)(CCC[C@@]4(C)C(=O)O[C@@H]4O[C@H](CO)[C@@H](O)[C@H](O[C@@H]5O[C@H](CO)[C@@H](O)[C@H](O)[C@H]5O)[C@H]4O[C@@H]4O[C@H](CO)[C@@H](O)[C@H](O)[C@H]4O)[C@@H]2CC[C@]1(O[C@@H]1O[C@H](CO)[C@@H](O)[C@H](O[C@@H]2O[C@H](CO)[C@@H](O)[C@H](O)[C@H]2O)[C@H]1O[C@@H]1O[C@H](CO)[C@@H](O)[C@H](O)[C@H]1O)C3 [RebM, Rebaudioside M]
Sweetness Quality preferred (quinic acid backbone modifier 400 ppm, RebM 600 ppm): !! | Sweetness Quality preferred (quinic acid backbone modifier 400 ppm, RebM 700 ppm): !! | Sweetness Quality preferred (quinic acid backbone modifier 500 ppm, RebM 600 ppm): ! | Sweetness Quality preferred (quinic acid backbone modifier 500 ppm, RebM 700 ppm): !!! | Sweetness Quality preferred (quinic acid backbone modifier 600 ppm, RebM 400 ppm): ! | Sweetness Quality preferred (quinic acid backbone modifier 600 ppm, RebM 700 ppm): ! | Sweetness Quality preferred (quinic acid backbone modifier 700 ppm, RebM 800 ppm): !! | Sweetness Quality preferred (quinic acid backbone modifier 800 ppm, RebM 400 ppm): ! | Sweetness Quality preferred (quinic acid backbone modifier 800 ppm, RebM 600 ppm): ! | Sweetness Quality preferred (quinic acid backbone modifier 800 ppm, RebM 700 ppm): !
